Reference: paper PMC3962378, “Molecular Mechanism of Strict Substrate Specificity of an Extradiol Dioxygenase, DesB, Derived from Sphingobium sp. SYK-6” (PLoS ONE, 2014)

Target: T1, DesB (Sphingomonas paucimobilis, UniProt Q5NTE5)
T1 construct: overexpressed in E. coli, purified to near homogeneity; swapped homodimer with active sites at the subunit interface; 418 residues; Fe(II) form
T1 sequence (Q5NTE5 1-418): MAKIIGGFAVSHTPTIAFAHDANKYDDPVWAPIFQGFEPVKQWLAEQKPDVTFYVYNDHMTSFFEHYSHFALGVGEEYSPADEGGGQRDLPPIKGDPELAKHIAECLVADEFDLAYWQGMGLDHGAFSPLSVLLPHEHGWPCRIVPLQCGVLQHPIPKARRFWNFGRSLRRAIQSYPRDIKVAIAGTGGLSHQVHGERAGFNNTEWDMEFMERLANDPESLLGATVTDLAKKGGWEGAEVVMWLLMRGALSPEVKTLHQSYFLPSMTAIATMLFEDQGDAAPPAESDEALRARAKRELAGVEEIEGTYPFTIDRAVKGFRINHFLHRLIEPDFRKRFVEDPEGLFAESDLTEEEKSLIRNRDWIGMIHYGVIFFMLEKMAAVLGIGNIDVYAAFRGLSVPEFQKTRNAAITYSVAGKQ
Test: X-ray crystal structure (soak)
Format: binding
Conditions: anaerobic, pH 7.75, Fe(II), active site, 2.40 A

O=C(O)c1ccc(O)c(O)c1 [PCA]
X-ray crystal structure (soak) (10 mM PCA soak, flipped non-productive binding, not turned over): bound PCA was found in the active site of the anaerobic DesB-PCA complex

O=C(O)c1cc(O)c(O)c(O)c1 [gallate]
X-ray crystal structure (soak) (10 mM gallate soak, further complexes 3WKU, 3WPM (co-crystal), 3WR3, 3WR4): gallate is bound to the active site through several hydrogen bonds
